In data set [1] the test system is COLO 205. As to the kind of experiment: Cell cycle arrest in human COLO 205 cells assessed as accumulation at G0/G1 phase at 200 nM measured after 24 hrs by propidium iodide staining based flow cytometry relative to control. Format: functional. (In flow cytometry, cells or beads pass a laser one at a time.)
Data set [2] addresses Cyclin-dependent kinase 1/cyclin B1 (Homo sapiens, UniProt P06493).
Description: Inhibition of CDK1/cyclin B (unknown origin)
The target of the next data set is CYP2C9 (Homo sapiens, UniProt P11712). Briefly: Inhibition of CYP2C9 in human liver microsomes at 10 uM measured after 20 mins in presence of NADPH by LC-MS/MS analysis relative to control. Format: ADME. A general note: Microsomes from liver hold many membrane-bound enzymes, among them those of drug oxidation.
A further data set has as its target CDK2/Cyclin A2 (Homo sapiens, UniProt P24941).
The target in the next data set is CDK9/cyclin T1 (Homo sapiens, UniProt P50750).
Data set [3] is described as follows: Oral bioavailability in BALB/c mouse at 10 mg/kg by LC-MS/MS analysis. Format: ADME, organism-based. Conditions: in vivo; call rule not given here.
For a further data set, the target named is CDK6/Cyclin D3 (Homo sapiens, UniProt Q00534). As to the kind of experiment: Inhibition of human full-length N-terminal GST tagged CDK6 (1 to 326 residues)/GST-tagged cyclinD3 (1 to 292 residues) expressed in baculovirus expression system using ULight-elF4E-binding protein 1 peptide as substrate measured after 30 mins by LANCE assay. (In TR-FRET formats the signal depends on donor and acceptor labels being close together.)

Data set [4] concerns COLO 205. As to the kind of experiment: Antitumor activity against human COLO 205 cells xenografted in BALB/c mouse assessed as tumor growth inhibition at 30 mg/kg, po q3d for 11 days relative to control. Format: functional. Conditions: COLO 205, po, time 11 day, read-out: TGI.
A short description of data set [5]: Toxicity in human COLO 205 cells xenografted BALB/c mouse assessed as body weight loss at 3 mg/kg, po qd for 11 days relative to control. It is filed as organism-based. The conditions noted are these: in vivo, time 11 day.
Data set [6] is described as follows: Volume of distribution at steady state in BALB/c mouse at 3 mg/kg, iv by LC-MS/MS analysis. Format: ADME, organism-based. The conditions noted are these: in vivo, read-out: Vdss.
A short description of data set [7]: Toxicity in human U-87 MG cells xenografted BALB/c mouse assessed as body weight loss at 10 mg/kg, po qd for 16 days relative to control. It is filed as organism-based. Conditions: in vivo, 384 h, time 16 day.
Data set [8] deals with Cyclin-dependent kinase 7/ cyclin H (Homo sapiens, UniProt P50613). Briefly: Inhibition of CDK7/cyclin H (unknown origin). It is filed as protein-complex assay.
The subject of data set [9] is COLO 205. As to the kind of experiment: Antiproliferative activity against human COLO 205 cells assessed as cell growth inhibition measured after 4 to 6 days by celltiter-glo luminescent cell viability assay. Format: functional, cell-based.
In a further data set the target is Cytochrome P450 2C9 (Homo sapiens, UniProt P11712). As to the kind of experiment: Time-dependent inhibition of CYP2C9 in human liver microsomes at 10 uM in presence of NADPH by LC-MS/MS analysis. Format: ADME.
Data set [10] is described as follows: AUC (0 to t) in BALB/c mouse at 10 mg/kg, po by LC-MS/MS analysis. More on the design: dose 10 mg/kg. It is filed as ADME, organism-based. The conditions noted are these: in vivo.
Data set [11] can be described thus: Intrinsic clearance in rat liver microsomes at 1 uM preincubated for 10 mins followed by NADPH addition and measured after 1 hr by LC-MS/MS analysis. The conditions noted are these: time 70 min, read-out: CLH. It is filed as ADME, Microsome.
A short description of data set [12]: Cmax in Sprague-Dawley rat at 6 mg/kg, po by LC-MS/MS analysis. It is filed as ADME, organism-based. More on the design: route oral, dose 6 mg/kg. Conditions: in vivo.
The test system of data set [13] is COLO 205. As to the kind of experiment: Antitumor activity against human COLO 205 cells xenografted in po dosed BALB/c mouse assessed as tumor growth inhibition administered once daily or every three days for 11 days. It is filed as functional, organism-based. The conditions noted are these: time 11.0 day.

Consider one molecule from ChEMBL document CHEMBL4765279, “Discovery of a novel series of imidazo[1',2':1,6]pyrido[2,3-d]pyrimidin derivatives as potent cyclin-dependent kinase 4/6 inhibitors” (Eur J Med Chem, 2020).

One may read the IC50 as the concentration needed to halve the response being measured. As usually defined, the inhibition is the change of the read-out against control, counted positive when it falls. As usually defined, the bioavailability is the share of a dose that reaches the circulation, judged against a reference dose that is usually intravenous. In general, AUC(0-t) refers to the area under the concentration-time curve up to a stated or last time point. Usually Cmax stands for the maximum level reached in the sampled fluid or tissue.

Cyclin-dependent kinase 1/cyclin B1, sequence (P06493 whole entry): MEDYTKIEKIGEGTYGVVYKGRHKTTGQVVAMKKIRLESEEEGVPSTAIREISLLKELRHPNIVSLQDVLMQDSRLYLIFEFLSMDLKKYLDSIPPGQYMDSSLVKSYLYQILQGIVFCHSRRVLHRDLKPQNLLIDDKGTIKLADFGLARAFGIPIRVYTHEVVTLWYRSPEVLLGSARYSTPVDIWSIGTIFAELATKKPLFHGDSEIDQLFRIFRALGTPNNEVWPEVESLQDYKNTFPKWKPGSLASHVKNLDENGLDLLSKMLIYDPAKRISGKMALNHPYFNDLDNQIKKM
Cyclin-dependent kinase 1/cyclin B1, sequence (P14635 whole entry, further chain): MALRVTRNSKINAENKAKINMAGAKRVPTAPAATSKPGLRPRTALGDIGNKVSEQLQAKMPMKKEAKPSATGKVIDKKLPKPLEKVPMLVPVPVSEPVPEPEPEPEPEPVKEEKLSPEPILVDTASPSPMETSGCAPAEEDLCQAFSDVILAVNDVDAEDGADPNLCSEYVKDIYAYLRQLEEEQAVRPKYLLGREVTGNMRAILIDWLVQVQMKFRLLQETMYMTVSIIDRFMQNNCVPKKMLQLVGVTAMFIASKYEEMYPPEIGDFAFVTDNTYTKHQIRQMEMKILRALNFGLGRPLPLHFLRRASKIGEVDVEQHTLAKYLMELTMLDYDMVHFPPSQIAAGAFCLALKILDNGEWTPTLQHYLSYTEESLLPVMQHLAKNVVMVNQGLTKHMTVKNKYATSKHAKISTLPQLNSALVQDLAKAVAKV
CDK9/cyclin T1, sequence (O60563 whole entry): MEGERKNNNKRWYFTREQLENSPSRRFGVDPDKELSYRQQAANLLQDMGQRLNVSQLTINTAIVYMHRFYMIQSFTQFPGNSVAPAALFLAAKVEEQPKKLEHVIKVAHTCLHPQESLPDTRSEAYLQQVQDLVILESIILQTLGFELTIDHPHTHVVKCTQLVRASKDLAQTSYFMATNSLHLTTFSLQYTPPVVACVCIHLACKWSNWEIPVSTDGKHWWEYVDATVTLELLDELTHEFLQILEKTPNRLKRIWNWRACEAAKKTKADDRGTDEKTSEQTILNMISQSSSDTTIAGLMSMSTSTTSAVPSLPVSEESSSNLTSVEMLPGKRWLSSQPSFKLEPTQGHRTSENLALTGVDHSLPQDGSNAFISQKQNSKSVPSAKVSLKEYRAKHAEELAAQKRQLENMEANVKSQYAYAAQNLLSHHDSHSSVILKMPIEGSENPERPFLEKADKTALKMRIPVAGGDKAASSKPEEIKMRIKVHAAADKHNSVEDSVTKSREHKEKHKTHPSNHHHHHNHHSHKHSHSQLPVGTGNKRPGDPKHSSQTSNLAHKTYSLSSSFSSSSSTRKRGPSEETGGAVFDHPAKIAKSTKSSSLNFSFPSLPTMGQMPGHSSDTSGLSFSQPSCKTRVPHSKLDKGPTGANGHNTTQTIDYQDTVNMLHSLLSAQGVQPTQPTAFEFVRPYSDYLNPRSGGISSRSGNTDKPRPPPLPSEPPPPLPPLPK
CDK9/cyclin T1, sequence (P50750 whole entry): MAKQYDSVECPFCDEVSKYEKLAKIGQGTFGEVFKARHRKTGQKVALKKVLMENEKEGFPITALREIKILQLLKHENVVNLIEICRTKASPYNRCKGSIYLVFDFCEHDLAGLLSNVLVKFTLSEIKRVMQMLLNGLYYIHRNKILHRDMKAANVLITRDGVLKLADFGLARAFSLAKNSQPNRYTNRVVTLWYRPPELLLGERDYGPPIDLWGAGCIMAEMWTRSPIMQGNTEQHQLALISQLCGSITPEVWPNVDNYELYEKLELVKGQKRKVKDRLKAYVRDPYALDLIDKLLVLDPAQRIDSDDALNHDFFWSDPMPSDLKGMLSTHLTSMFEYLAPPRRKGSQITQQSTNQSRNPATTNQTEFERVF
Cyclin-dependent kinase 7/ cyclin H, sequence (P51946 whole entry): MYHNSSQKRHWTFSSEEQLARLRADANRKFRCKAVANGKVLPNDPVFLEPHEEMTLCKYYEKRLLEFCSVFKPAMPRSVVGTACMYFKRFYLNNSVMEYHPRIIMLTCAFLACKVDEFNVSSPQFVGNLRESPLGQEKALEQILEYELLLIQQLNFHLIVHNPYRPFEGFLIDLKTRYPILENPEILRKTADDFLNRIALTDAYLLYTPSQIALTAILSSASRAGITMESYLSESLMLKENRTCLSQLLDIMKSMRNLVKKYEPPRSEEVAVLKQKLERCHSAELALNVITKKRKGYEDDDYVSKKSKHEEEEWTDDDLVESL
Cyclin-dependent kinase 7/ cyclin H, sequence (P50613 whole entry): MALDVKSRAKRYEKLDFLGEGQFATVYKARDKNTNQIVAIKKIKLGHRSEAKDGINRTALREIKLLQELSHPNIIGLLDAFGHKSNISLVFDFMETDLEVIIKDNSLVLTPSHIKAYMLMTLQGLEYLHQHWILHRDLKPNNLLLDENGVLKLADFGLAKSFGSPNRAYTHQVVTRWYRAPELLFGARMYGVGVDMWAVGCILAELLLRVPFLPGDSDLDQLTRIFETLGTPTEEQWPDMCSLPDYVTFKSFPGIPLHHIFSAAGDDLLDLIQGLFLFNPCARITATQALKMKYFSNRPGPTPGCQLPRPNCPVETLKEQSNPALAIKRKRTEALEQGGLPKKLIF
Cytochrome P450 2C9, sequence (P11712 whole entry): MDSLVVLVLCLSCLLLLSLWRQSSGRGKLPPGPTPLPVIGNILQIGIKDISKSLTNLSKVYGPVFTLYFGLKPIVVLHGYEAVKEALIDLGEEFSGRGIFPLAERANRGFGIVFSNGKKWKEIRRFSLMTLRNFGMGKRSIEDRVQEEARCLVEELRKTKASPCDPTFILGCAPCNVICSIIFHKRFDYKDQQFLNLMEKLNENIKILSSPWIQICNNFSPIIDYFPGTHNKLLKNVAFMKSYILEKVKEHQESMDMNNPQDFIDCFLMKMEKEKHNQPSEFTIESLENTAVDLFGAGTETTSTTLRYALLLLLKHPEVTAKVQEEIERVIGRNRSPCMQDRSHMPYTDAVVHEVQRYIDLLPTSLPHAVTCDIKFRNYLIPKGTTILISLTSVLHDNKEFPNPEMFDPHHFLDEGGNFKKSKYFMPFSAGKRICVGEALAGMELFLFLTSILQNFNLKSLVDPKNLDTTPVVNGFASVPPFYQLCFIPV
CYP2C9, sequence (P11712 whole entry): as above
CDK6/Cyclin D3, sequence (Q00534 whole entry, looked up, the tested form may be a part): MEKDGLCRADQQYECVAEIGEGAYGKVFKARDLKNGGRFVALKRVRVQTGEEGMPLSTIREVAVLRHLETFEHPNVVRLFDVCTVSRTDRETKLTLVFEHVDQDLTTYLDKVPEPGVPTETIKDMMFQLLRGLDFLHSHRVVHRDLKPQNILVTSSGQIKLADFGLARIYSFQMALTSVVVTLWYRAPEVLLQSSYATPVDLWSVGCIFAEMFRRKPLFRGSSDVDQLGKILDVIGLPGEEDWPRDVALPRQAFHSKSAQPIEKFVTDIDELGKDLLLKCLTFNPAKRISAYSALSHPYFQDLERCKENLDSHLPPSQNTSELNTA
Description for CDK2/Cyclin A2: Inhibition of CDK2/cyclin A2 (unknown origin)
Description for CDK9/cyclin T1: Inhibition of CDK9/cyclin T1 (unknown origin)

Regarding `CC(=O)c1c(C)c2cnc(Nc3ccc(N4CCNCC4)cc3)nc2n2cc(C(C)C)nc12`, the figures for the Activity (in the data set on COLO 205 [1]; in data set [5]; in [7]) were 94.2%, < 20% and < 20%, respectively. Also, the IC50 in [2] turned out to be 309 nM; on CDK2/Cyclin A2, 18.9 nM; at CDK9/cyclin T1, 23.4 nM; on CDK6/Cyclin D3, 2 nM; in [8], 94.7 nM; with COLO 205 [9], 56.4 nM. The inhibition at […], 10 µM on CYP2C9 came to 11%. For the same molecule, in data set [3], the bioavailability came out at 20.5%. For the same molecule, the inhibition in vivo at 30 mg/kg in the data set on COLO 205 [4] is 85%. Besides, the Vd in data set [6] came out at 46.5 L/kg. The TDI result on Cytochrome P450 2C9 is on record as “Not Active”. For the same molecule, in data set [10], the AUC(0-t) is 318 ng·h/mL. Also, in data set [11], the microsomal CLint at 1 µM is 54 µL/min/mg. For the same molecule, the peak level in [12] (Cmax) was 110 ng/mL. In addition, the TGI entry with COLO 205 [13] was “Dose-dependent effect”.
